Measurements from paper PMC12001203, “Binding‐Site Purification of Actives (B‐SPA) Enables Efficient Large‐Scale Progression of Fragment Hits by Combining Multi‐Step Array Synthesis With HT Crystallography” (Angewandte Chemie (International Ed. in English), 2025).

Biological target: T1, Pleckstrin Homology Domain‐Interacting Protein, second bromodomain (PHIP(2)) (Homo sapiens, UniProt Q8WWQ0)
T1 construct: second bromodomain (PHIP(2))
Experiment: grating-coupled interferometry (waveRAPID) Kd; crystal structure; AlphaScreen IC50
Type: binding

Kd: 50 µM
Compound: O=C(Nc1nc2ccccc2o1)N1CCN(C(=O)c2ccco2)CC1 [PHIP-AM1-20, PHIP‐AM1‐20]
